Experimental data reported in BindingDB's records for patent US11530198 (Vyera Pharmaceuticals, 2022).

What was measured:
Dihydrofolate reductase = molecular target: T1, Dihydrofolate reductase (Homo sapiens, UniProt P00374); experiment: Not found
T1 sequence (P00374 whole entry): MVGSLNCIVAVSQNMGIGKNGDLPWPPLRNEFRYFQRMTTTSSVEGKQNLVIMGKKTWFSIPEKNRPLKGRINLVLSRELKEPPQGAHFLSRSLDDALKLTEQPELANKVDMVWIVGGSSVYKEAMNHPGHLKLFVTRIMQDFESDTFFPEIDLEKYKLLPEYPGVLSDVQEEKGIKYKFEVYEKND

[1] = molecular target: Bifunctional dihydrofolate reductase-thymidylate synthase (Leishmania major, UniProt P07382); experiment: Not found
Sequence of Bifunctional dihydrofolate reductase-thymidylate synthase (P07382 whole entry): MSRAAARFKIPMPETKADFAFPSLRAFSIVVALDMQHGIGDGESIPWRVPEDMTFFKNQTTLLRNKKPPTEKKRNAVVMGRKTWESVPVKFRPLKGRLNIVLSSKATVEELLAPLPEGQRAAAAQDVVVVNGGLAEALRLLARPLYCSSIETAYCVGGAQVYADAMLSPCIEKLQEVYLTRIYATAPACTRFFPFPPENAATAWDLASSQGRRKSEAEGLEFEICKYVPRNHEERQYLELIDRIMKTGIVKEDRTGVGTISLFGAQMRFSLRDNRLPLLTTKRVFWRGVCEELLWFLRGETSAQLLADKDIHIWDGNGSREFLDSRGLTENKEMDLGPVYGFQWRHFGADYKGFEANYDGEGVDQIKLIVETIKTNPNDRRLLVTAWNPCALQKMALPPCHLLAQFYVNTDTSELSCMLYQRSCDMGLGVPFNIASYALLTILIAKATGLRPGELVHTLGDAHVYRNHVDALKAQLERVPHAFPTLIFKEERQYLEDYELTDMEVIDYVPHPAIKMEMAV

`Nc1ncc(N2CCN(c3ccccc3-c3ccccc3)CC2)c(N)n1` [US11530198, Example 12] was tested. Which IC50 (Dihydrofolate reductase) did it give?
Its IC50 is 214 nM.

And the IC50 [1]?
The IC50 was 7.41 nM.
